Results as given in ChEMBL document CHEMBL1201862, “PubChem BioAssay data set” (2004).
Where a name gives a salt, the structure may show the parent alone. Active and inactive are the calls of the source.

Legend:
[1] = HEK293T cell cytotoxicity, dose response, cytotoxicity control, plate reader, dry powder, set 10 (AID 743315); type: functional, cell-based; details: HEK293
[2] = molecular target: T1, Low molecular weight phosphotyrosine protein phosphatase (Homo sapiens, UniProt P24666); assay: LMPTP phosphatase inhibitors, colorimetric pNPP readout, dose response, orthogonal assay, biochemical, absorbance, pNPP substrate, LMPTP-A isoform, set 2 (AID 743308); type: functional
T1 sequence (P24666 whole entry): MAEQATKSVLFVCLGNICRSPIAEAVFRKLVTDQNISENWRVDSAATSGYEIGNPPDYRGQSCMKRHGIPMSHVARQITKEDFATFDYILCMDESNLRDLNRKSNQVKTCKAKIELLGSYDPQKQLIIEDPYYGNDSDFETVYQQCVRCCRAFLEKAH

[3] = molecular target: T1, Low molecular weight phosphotyrosine protein phosphatase; assay: LMPTP phosphatase inhibitors, dose response, biochemical, OMFP substrate, fluorescence intensity, set 2 (AID 743307); type: functional
[4] = molecular target: T2, Zinc finger protein mex-5 (Caenorhabditis elegans, UniProt Q9XUB2); assay: MEX-5/TCR-2 RNA interaction inhibitors, dose response, biochemical, C. elegans, fluorescence polarization (AID 1960)
T2 sequence (Q9XUB2 whole entry): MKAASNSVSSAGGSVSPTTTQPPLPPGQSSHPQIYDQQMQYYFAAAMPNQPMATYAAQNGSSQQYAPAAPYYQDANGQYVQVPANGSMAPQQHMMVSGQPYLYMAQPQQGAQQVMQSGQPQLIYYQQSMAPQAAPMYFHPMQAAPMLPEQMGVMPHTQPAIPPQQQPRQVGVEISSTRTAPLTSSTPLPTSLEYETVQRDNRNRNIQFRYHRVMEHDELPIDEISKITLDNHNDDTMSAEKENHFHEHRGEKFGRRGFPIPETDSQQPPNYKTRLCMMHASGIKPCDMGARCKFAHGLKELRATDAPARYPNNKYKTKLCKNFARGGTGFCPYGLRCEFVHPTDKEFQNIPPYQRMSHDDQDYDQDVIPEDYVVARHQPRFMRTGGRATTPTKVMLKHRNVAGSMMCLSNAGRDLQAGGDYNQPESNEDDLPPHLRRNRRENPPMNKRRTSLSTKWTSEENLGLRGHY

[5] = molecular target: T3, RNA-binding protein pos-1 (Caenorhabditis elegans, UniProt G5EF15); assay: inhibitors of POS-1/mex-3 RNA binding, dose response, biochemical, fluorescence polarization (AID 1964);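 also: purified POS-1 fused to maltose binding protein made in E. coli; potency of compounds blocking POS-1 binding to fluorescent RNA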
T3 sequence (G5EF15 whole entry): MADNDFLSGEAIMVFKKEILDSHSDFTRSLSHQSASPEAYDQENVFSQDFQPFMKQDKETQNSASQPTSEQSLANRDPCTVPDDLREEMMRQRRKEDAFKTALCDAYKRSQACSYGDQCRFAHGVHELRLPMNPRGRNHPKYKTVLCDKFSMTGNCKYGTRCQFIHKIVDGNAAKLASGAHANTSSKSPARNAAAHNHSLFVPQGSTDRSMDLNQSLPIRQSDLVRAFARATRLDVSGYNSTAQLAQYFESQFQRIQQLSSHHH

[6] = molecular target: T4, Apoptotic protease-activating factor 1 (Homo sapiens, UniProt O14727); type: functional
T4 sequence (O14727 whole entry): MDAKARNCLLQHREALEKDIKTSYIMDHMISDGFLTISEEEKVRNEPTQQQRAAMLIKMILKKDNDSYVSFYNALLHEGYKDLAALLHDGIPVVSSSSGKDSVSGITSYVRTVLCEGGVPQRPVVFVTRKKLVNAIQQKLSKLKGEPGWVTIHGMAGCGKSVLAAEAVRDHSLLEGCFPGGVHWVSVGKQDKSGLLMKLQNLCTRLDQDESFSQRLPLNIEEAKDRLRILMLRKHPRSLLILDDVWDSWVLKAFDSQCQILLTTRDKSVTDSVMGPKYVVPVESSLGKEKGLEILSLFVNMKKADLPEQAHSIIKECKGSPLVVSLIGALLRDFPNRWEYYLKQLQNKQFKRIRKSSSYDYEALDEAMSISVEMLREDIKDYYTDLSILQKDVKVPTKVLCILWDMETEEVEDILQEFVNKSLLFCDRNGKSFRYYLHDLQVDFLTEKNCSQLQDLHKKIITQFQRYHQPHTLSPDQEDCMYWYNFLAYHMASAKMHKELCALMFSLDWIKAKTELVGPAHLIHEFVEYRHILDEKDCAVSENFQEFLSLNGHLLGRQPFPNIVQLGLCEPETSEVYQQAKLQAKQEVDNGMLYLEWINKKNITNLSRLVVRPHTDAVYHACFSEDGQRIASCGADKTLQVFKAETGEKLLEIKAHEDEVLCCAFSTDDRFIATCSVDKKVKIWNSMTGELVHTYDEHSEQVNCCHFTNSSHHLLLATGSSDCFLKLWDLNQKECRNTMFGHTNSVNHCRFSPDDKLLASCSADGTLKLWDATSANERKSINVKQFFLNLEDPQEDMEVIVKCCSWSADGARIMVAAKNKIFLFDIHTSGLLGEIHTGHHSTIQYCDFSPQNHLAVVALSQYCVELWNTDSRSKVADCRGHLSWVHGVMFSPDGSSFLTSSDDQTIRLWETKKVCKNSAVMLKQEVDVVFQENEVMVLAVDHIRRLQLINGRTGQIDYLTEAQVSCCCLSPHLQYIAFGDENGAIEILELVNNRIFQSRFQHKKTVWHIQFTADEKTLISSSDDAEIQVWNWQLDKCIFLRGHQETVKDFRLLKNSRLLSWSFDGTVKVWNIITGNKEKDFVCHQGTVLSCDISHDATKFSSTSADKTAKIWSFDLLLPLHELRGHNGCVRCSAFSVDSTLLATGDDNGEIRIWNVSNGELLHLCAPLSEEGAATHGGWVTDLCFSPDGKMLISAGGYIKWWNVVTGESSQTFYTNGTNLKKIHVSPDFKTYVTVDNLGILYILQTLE

Genome polyprotein = Genome polyprotein (dengue virus type 2, UniProt P29990); assay: Dengue-2 NS5 methyltransferase inhibitors, primary screen, biochemical, confirmation dose response (AID 588689); type: functional
[7] = molecular target: Glutathione-S-transferase (Schistosoma japonicum, UniProt Q26513); assay: biotin-GST/anti-GST TR-FRET signal inhibitors, dose response, artefact control for Vif-APOBEC3G degradation inhibitor project, biochemical (AID 1117362); type: functional
[8] = Vero cell cytotoxicity, dose response, cytotoxicity control for Vif-APOBEC3G degradation inhibitor project, Vero cells (AID 1117358); type: functional; details: Human immunodeficiency virus 1, Vero
[9] = A549 cell cytotoxicity, dose response, CellTiter-Glo luminescence, dry powder, set 17 (AID 1117284); type: functional, cell-based
[10] = A549 cell cytotoxicity, dose response, cytotoxicity control, 24 h, CellTiter-Glo luminescence, cherry-picks (AID 1053115); type: functional, cell-based; details: A549, 24 h
[11] = P. falciparum late gametocyte killing, dose response, luminescence (AID 1117278); type: functional, cell-based;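 also: gametocytes exposed to compound for 24 hours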
[12] = Jurkat T cell cytotoxicity, dose response, cytotoxicity control for P. falciparum gametocyte viability project, luminescence (AID 1117277); type: functional, cell-based;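 also: potency reflects loss of cellular ATP meaning fewer viable cells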
[13] = Dose-response inhibition of insulin secretion in a rat insulinoma line at 5 mM glucose (AID 1117331); type: functional, cell-based; details: INS-1E
cells [14] = type: functional, cell-based
cells [15] = type: functional, cell-based; remark: listed apart in the source
[16] = NIH-3T3 fibroblast cytotoxicity, dose response, cytotoxicity control, cell-based, fluorescence, Alamar Blue, secondary assay (AID 2327); type: functional;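 also: NIH-3T3 mouse fibroblasts cultured with fluconazole at 8 µg/mL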
[17] = C. albicans growth with fluconazole, confirmation, fluorescence, retest (AID 2467); type: functional, cell-based
[18] = molecular target: Serine/threonine-protein phosphatase (Candida dubliniensis (strain CD36 / CBS 7987 / NCPF 3949 / NRRLY-17841) (Yeast), UniProt B9W6M3); assay: calcineurin pathway inhibitors in yeast reporter, dose response, S. cerevisiae, CDRE-lacZ, luminescence, secondary (AID 2388); type: functional, cell-based;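 also: yeast reporter cells carrying a calcineurin-responsive lacZ construct stimulated with calcium chloride; luminescent beta-galactosidase reporter signal in whole cells rather than isolated phosphatase activity; potency for inhibition where a drop in reporter signal means calcineurin blockade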
[19] = molecular target: ATP-dependent molecular chaperone HSP82 (Candida albicans (strain WO-1) (Yeast), UniProt C4YTQ8); assay: loss of DOC-induced GRE-beta-galactosidase reporter signal, dose response, Hsp90 inhibitor project, S. cerevisiae, luminescence (AID 2400); type: functional, cell-based;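 also: beta-galactosidase luminescence from glucocorticoid response element reporter as proxy for Hsp90 function; inhibitor potency where signal loss means Hsp90 inhibition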
[20] = HeLa 4N DNA content increase, dose response, cell-based, IC50 (AID 1117351); type: functional
[21] = HeLa 2N DNA content increase, dose response, cell-based, IC50 (AID 1117349); type: functional

Chain of ATP-dependent molecular chaperone HSP82 (C4YTQ8 whole entry): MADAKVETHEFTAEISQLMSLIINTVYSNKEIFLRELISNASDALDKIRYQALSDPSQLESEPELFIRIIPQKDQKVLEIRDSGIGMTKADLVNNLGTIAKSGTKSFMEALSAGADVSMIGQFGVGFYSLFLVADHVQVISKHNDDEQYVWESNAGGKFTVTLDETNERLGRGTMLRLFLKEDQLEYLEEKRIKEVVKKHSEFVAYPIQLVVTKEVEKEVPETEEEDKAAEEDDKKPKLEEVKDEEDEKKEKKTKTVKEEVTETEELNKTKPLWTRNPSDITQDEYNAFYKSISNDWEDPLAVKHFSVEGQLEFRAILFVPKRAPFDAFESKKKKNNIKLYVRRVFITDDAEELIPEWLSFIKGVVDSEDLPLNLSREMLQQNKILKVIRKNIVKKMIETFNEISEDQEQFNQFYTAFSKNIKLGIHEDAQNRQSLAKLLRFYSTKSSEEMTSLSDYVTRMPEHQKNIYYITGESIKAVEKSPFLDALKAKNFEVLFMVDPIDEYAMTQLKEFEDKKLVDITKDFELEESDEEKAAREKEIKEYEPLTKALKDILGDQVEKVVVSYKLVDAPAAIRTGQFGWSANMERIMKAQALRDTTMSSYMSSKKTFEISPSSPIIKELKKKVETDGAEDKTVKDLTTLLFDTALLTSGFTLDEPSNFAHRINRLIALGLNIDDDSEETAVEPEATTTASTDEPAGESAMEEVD
Chain of Serine/threonine-protein phosphatase (B9W6M3 whole entry): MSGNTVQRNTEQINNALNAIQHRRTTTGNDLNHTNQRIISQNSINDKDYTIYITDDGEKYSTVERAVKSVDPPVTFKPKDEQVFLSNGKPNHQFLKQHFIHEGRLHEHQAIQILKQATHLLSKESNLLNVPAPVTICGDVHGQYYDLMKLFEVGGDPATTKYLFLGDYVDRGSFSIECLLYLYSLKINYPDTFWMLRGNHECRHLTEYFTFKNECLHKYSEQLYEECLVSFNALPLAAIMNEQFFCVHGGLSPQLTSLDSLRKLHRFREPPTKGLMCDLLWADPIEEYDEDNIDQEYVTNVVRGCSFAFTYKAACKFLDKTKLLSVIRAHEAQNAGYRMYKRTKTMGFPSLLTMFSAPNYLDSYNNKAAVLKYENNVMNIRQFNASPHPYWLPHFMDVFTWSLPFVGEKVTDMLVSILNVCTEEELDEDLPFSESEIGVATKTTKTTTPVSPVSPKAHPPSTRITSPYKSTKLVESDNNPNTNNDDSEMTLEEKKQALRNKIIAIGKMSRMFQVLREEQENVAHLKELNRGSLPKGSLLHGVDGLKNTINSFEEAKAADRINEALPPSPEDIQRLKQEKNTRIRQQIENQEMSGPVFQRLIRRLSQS
Chain of Genome polyprotein (P29990 2492-3391 limits assumed): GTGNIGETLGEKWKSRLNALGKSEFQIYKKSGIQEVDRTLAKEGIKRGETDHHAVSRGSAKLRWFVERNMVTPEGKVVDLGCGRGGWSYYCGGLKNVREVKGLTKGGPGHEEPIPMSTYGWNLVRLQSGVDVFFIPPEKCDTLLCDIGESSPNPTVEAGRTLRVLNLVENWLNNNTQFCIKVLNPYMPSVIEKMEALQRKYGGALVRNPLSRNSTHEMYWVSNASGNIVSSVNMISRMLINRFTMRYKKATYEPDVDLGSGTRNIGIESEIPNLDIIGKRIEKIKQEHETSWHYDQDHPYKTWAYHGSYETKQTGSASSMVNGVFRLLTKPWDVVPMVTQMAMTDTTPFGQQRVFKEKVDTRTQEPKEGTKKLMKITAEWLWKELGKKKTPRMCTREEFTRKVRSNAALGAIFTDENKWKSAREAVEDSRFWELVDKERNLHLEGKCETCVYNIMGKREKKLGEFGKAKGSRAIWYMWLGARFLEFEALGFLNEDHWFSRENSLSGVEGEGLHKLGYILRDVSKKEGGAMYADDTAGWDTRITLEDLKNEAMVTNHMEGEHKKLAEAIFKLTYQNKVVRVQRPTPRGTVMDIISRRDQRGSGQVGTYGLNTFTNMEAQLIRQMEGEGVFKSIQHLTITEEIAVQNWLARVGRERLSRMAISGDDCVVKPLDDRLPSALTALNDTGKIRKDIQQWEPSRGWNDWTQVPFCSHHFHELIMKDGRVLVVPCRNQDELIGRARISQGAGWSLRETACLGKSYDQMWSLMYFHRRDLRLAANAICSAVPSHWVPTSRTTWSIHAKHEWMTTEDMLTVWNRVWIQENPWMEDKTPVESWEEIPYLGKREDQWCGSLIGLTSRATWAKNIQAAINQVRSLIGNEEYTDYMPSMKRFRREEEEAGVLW
Chain of Glutathione-S-transferase (Q26513 whole entry): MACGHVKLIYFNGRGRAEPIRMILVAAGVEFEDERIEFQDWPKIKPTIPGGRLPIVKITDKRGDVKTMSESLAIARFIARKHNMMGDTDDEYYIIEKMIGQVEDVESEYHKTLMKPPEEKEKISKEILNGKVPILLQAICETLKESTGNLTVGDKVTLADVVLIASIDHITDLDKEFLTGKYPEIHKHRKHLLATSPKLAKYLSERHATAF

CC(C)c1ccc(OCCn2c(=S)[nH]c3ccccc32)cc1
AC50 [1]: 27.3 µM (active)

c1ccc(-c2nc(NCCN3CCCC3)c3ccccc3n2)cc1
IC50 [2]: > 80 µM (inactive)
IC50 [3]: > 80 µM (inactive)

COC(=O)CCC(=O)OC1(C)C(=O)C2=CN(CCCOC(C)C)C(c3ccc(OC)cc3)=CC2=C(Br)C1=O (configuration not stated)
EC50 [4]: 42 µM (active)
EC50 [5]: 46.9 µM (active)
IC50 [6]: 15.4 µM (active)
IC50 (Genome polyprotein): 19.8 µM (active)
IC50 [7]: > 100 µM (active)

Oc1ccccc1-c1cc(C(F)(F)C(F)F)[nH]n1
CC50 [8]: > 40 µM (active)

C[C@H]1CN([C@@H](C)CO)S(=O)(=O)c2ccc(C#CC(C)(C)O)cc2O[C@H]1CN(C)Cc1ccc(-c2ccccc2)cc1
AC50 [9]: 20.4 µM (active)
AC50 [10]: > 60 µM (inactive)

CCOC(=O)c1c(N)c2cc([N+](=O)[O-])cnc2n1C
IC50 [11]: > 109 µM (inactive)
IC50 [12]: > 83.4 µM (inactive)

CN1CCC(N(Cc2cccs2)c2ccccc2)CC1 [THENALIDINE]
IC50 [13]: 20.4 µM (inactive)

CC(=O)N(O)CCCCCNC(=O)CCC(=O)N(O)CCCCCNC(=O)CCC(=O)N(O)CCCCCN [DEFEROXAMINE MESYLATE]
EC50 (cells [14]): > 350 µM (not active)
EC50 (cells [15]): 225 µM (active)
EC50 [16]: > 150 µM (inactive)
EC50 [17]: 0.578 µM (active)
EC50 [18]: > 180 µM (inactive)
EC50 [19]: > 150 µM (inactive)
IC50 [20]: > 10 µM (inactive)
IC50 [21]: > 10 µM (inactive)
